Laboratory results published in patent US20180228722A1, “UNIT DOSE PACKAGES, COMPOSITIONS, AND TREATMENT REGIMENS TO DELIVER PRO-[…] S[…] KERATIN SURFACES” (ELC Management LLC, priority 2015, published 2018).

Key:
human neutrophils [1] = test: Release of Inflammatory Metabolites (PGE2, LTB4) and Inflammatory Metabolite Marker (5-HETE) from PMA/A23187-stimulated neutrophils, LC-MS/MS of supernatants; type: cell-based; details: for decrease in Inflammatory Metabolites and Inflammatory Metabolite Markers (aggregate): vs control cells exposed to inflammation precipitating condition; for net decrease in cellular concentration of Inflammatory Metabolites and Inflammatory Metabolite Markers (aggregate): vs control cells subjected only to inflammation precipitating condition; for decrease in cellular concentration of 5-HETE / decrease in cellular concentration of LTB4 / decrease in cellular concentration of PGE2: vs PMA/A23187 control
Protocol: (§1) Ingredients were tested to assess the ability to promote Pro-Resolution Pathway Stimulators in human neutrophils. The following Inflammatory Metabolites were measured: PGE2 and LTB4. The Inflammatory Metabolite Marker, 5-HETE, was measured. Also measured were the Pro-Resolving Lipid Mediator Markers 15-HETE, 12-HETE, 14-HDOHE, 18-HEPE, and 17-HDOHE. PGE2, LTB4, and 5-HETE are indicators of inflammation. Increases in cellular secretion of PGE2, LTB4, or 5-HETE are seen in response to inflammation precipitating conditions. Active ingredients that cause a reduction in cellular concentration of PGE2, LTB4, or 5-HETE are anti-inflammatory in nature. Cellular secretion of Pro-Resolving Lipid Mediators occurs in the inflammation resolution phase. Active ingredients that stimulate cellular secretion of Pro-Resolving Lipid Mediators (as measured by measuring Pro-Resolving Lipid Mediator Markers) help to promote resolution of inflammation.
(§2) Then, the inflammatory response was initiated by adding an inflammation precipitating ingredient, in particular PMA/[…] which is a mixture of 5-(methylamino)-2-({2R,3R,6S,8S,9R,11R)-3,9,11-trimethyl-8-[(1S)-1-methyl-2-oxo-2-(1H-pyrrol-2-yl)ethyl]-1,7-dioxaspiro[5.5]undec-2-yl}methyl)-1,3-benzoxazole-4-carboxylic acid and PMA (phorbol myristate acetate), at a concentration of 0.05 μm and 1 μm respectively to each well. After one hour the supernatants were collected and stored at −80° C. until assayed.
(§3) Cell supernatants were assayed for Inflammatory Metabolites (PGE2, LBT4), Inflammatory Metabolite Markers (5-HETE), and Pro-Resolving Lipid Mediator Markers 15-HETE, 12-HETE, 14-HDOHE, 18-HEPE, and 17-HDOHE. More specifically, analysis was performed by extraction using an Oasis HLB 96-well plate (Waters) according to manufacturer's directions.
(§4) Suitable Pro-Resolving Activators are ingredients that show an increase in cellular concentration of Pro-Resolving Lipid Mediator Markers 15-HETE, 12-HETE, 14-HDOHE, 18-HEPE, and 17-HDOHE alone or in combination, when cells exposed to an inflammation precipitating condition either before or after exposure to the active.

human neutrophils [2] = test: Release of Pro-Resolving Lipid Mediator Markers (15-HETE, 12-HETE, 14-HDOHE, 18-HEPE, 17-HDOHE) from PMA/A23187-stimulated neutrophils, LC-MS/MS of supernatants; type: cell-based
Protocol: as §1, §2, §3, §4

`Oc1ccc(C=Cc2cc(O)cc(O)c2)cc1` [resveratrol] was tested, and the “decrease in Inflammatory Metabolites and Inflammatory Metabolite Markers (aggregate)” value (human neutrophils [1]; 0.1 ug/ml) was 45%, the “decrease in Inflammatory Metabolites and Inflammatory Metabolite Markers (aggregate)” value (human neutrophils [1]; 1 ug/ml) was 59% and the “decrease in Inflammatory Metabolites and Inflammatory Metabolite Markers (aggregate)” value (human neutrophils [1]; 10 ug/ml) was 106%. The “% change of Pro-Resolving Lipid Mediator Markers, in the aggregate, compared to control” value (“% change” below) (human neutrophils [2]; 0.1 ug/ml) was −27%, the “% change” value (human neutrophils [2]; 1 ug/ml) was −16% and the “% change” value (human neutrophils [2]; 10 ug/ml) was −10%.
In the case of `O=C(O)c1ccccc1O` [salicylic acid], the “net decrease in cellular concentration of Inflammatory Metabolites and Inflammatory Metabolite Markers (aggregate)” value (from here on “net decrease in cellular concentration”) (human neutrophils [1]; 0.33 μg/ml (first of range 0.33 to 33 μg/ml)) is reported as 29%, the “decrease in cellular concentration of 5-HETE” value (shortened to “decrease … of 5-HETE”) (human neutrophils [1]; 0.33 μg/ml) is reported as 15% and the “decrease in cellular concentration of LTB4” value (from here on “decrease … of LTB4”) (human neutrophils [1]; 0.33 μg/ml) is reported as 1%. The “decrease in cellular concentration of PGE2” value (shortened to “decrease … of PGE2”) (human neutrophils [1]; 0.33 μg/ml) was 19%, the “net decrease in cellular concentration” value (human neutrophils [1]; 3.3 μg/ml (second of range 0.33 to 33 μg/ml)) was 58% and the “decrease … of 5-HETE” value (human neutrophils [1]; 3.3 μg/ml) was 20%. The “decrease … of LTB4” value (human neutrophils [1]; 3.3 μg/ml) was 12%, the “decrease … of PGE2” value (human neutrophils [1]; 3.3 μg/ml) was 28% and the “net decrease in cellular concentration” value (human neutrophils [1]; 33 μg/ml (third of range 0.33 to 33 μg/ml)) was 46%. The “decrease … of 5-HETE” value (human neutrophils [1]; 33 μg/ml) was 27%, the “decrease … of LTB4” value (human neutrophils [1]; 33 μg/ml) was 17% and the “decrease … of PGE2” value (human neutrophils [1]; 33 μg/ml) was 19%. The “change in cellular concentration of Pro-Resolving Lipid Mediators (aggregate)” value (human neutrophils [2]; 0.33 μg/ml, vs control cells) was “small increase”, the “change in cellular concentration of all Pro-Resolving Lipid Mediator Markers in the aggregate” value (human neutrophils [2]; 3.3 μg/ml, vs control cells) was “decreased” and the “change in cellular concentration of Pro-Resolving Lipid Mediator Marker 15-HETE” value (human neutrophils [2]; 33 μg/ml, vs control cells) was “decrease”. The “change in cellular concentration of all Pro-Resolving Lipid Mediator Markers in the aggregate” value (human neutrophils [2]; 33 μg/ml, vs control cells) was “decreased”.
For resveratrol salicylate, the “decrease in cellular concentration of Inflammatory Metabolites and Inflammation Metabolite Markers in the aggregate (better than control)” value (“decrease … (better than control)” below) (human neutrophils [1]; 0.43 ug/ml) was 87%, the “decrease … (better than control)” value (human neutrophils [1]; 4.3 ug/ml) was 163% and the “decrease … (better than control)” value (human neutrophils [1]; 43 ug/ml) was 257%. For the same compound, the “increase in cellular concentration of Pro-Resolving Lipid Mediator Markers, in the aggregate” value (from here on “increase in cellular concentration”) (human neutrophils [2]; 0.43 ug/ml) was “not being as effective”, the “increase in cellular concentration” value (human neutrophils [2]; 4.3 ug/ml) was 4% and the “increase in cellular concentration” value (human neutrophils [2]; 43 ug/ml) was 37%.
